Results on ten compounds are retold here after patent EP3928779A1 (Chugai Seiyaku Kabushiki Kaisha, priority 2014, dated 2016).

Test [1] concerns adenine-induced renal failure rat. Briefly: Suppressive effect on rise in serum phosphorus concentration of adenine-induced renal failure rat (0.1% in feed, 3 days). Format: in vivo. The conditions noted are these: feed or water, 72 h, adenine-induced renal failure Wistar male rat, test compound 0.1% of mass concentration in feed for 3 days, Fiske-Subbarow method, read-out: rate (%) of suppression of a rise in serum phosphorus concentration. The text has this:
Adenine was forcedly administered orally to each Wistar male rat (7-8 weeks old) to impair renal functions and thereby prepare a hyperphosphatemia model ([…], Nagano N, Burke SK, Fukushima N. Sevelamer hydrochloride prevents ectopic calcification and renal osteodystrophy in chronic renal failure rats. Kidney Int. 2003 Aug; 64 (2): 441-50). Each test compound was mixed at a ratio of 0.1% of mass concentration with feed. The animal was fed with a given amount of the feed for 3 days. A group given feed non-supplemented with a test compound was used as a reference pathological group, and an adenine-unadministered group given feed non-supplemented with a test compound was used as a normal group. 3 days after the start of administration of the test compound, blood was collected from the jugular vein, and serum was collected. Serum phosphorus concentrations were measured by the Fiske-Subbarow method. The rate of suppression of a rise in serum phosphorus concentration was determined according to the following expression: Rate (%) of suppression of a rise in serum phosphorus concentration = (1-[(Serum phosphorus concentration of the test compound-treated pathological group)-(Serum phosphorus concentration of the normal group)]/[(Serum phosphorus concentration of the reference pathological group)-(Serum phosphorus concentration of the normal group)]) × 100 [formula] As a result, each test compound was confirmed to have a suppressive effect on a rise in serum phosphorus concentration. […]

For test [2], the system named is rat small-intestinal brush border membrane vesicles. As to the kind of experiment: Inhibitory effect on 33PO4 uptake into rat small-intestinal brush border membrane vesicles (rapid filtration method). The following applies: 33PO4 uptake into rat small-intestinal BBMVs; test compound 1 µM; reacted for 60 seconds. Format: biochemical. The essentials: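 Uptake of ^33PO4 was measured by rapid filtration and liquid scintillation counting of filter-retained vesicles, after quenching with ice-cold 110 mM NaCl/1 mM KH2PO4/10 mM HEPES pH 7.5. Vesicles were brush border membranes from the upper small intestine of female Wistar rats aged 4–5 weeks.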

In the case of `C[C@]12CCCN1N(Cc1ccc(C#CCCCC(=O)O)c(F)c1F)C(=O)C(C(=O)Nc1ccc(C(F)(F)F)cc1-c1cc(C(F)(F)F)ncn1)=C2O` [Example 129, 6-[4-[[(4aR)-4-Hydroxy-4a-methyl-2-oxo-3-[[4-(trifluoromethyl)-2-[6-(trifluoromethyl)pyrimidin-4-yl]phenyl]carbamoyl]-6,7-dihydro-5H-pyrrolo[1,2-b]pyridazin-1-yl]methyl]-2,3-difluorophenyl]hex-5-ynoic acid], the inhibition in vivo at 0.1 % in feed in test [1] was 17%. The “Rate of uptake inhibition (%) (1 µM)” value in test [2] stood at 63%.

For `C[C@]12CCCN1N(Cc1ccc(C#CCN3CCOCC3)c(F)c1F)C(=O)C(C(=O)Nc1ccc(C(F)(F)F)cc1-c1ccc(C(F)(F)F)nc1)=C2O` [Example 140, (4aR)-1-[[2,3-Difluoro-4-(3-morpholin-4-ylprop-1-ynyl)phenyl]methyl]-4-hydroxy-4a-methyl-2-oxo-N-[4-(trifluoromethyl)-2-[6-(trifluoromethyl)pyridin-3-yl]phenyl]-6,7-dihydro-5H-pyrrolo[1,2-b]pyridazine-3-carboxamide], in test [1], the inhibition in vivo at 0.1 % in feed was determined as 39%. Further, the “Rate of uptake inhibition (%) (1 µM)” value in test [2] amounted to 77%.

Turning to `C[C@]12CCCN1N(Cc1ccc(OCCCOC[C@H](O)CO)c(F)c1F)C(=O)C(C(=O)Nc1ccc(C(F)(F)F)cc1-c1ccc(C(F)(F)F)nc1)=C2O` [Example 147, (4aR)-1-[[4-[3-[(2R)-2,3-Dihydroxypropoxy]propoxy]-2,3-difluorophenyl]methyl]-4-hydroxy-4a-methyl-2-oxo-N-[4-(trifluoromethyl)-2-[6-(trifluoromethyl)pyridin-3-yl]phenyl]-6,7-dihydro-5H-pyrrolo[1,2-b]pyridazine-3-carboxamide], the inhibition in vivo at 0.1 % in feed in test [1] is 35%. Moreover, the “Rate of uptake inhibition (%) (1 µM)” value in test [2] turned out to be 57%.

On to “(4aR)-4a-Ethyl-1-[(3-fluorophenyl)methyl]-4-hydroxy-N-[5-methyl-2-(trifluoromethyl)furan-3-yl]-2-oxo-6,7-dihydro-5H-pyrrolo[1,2-b]pyridazine-3-carboxamide [Example 9]”, for which, in test [2], the “Rate of uptake inhibition (%) (1 µM)” value is reported as 63%.

Take “(4aR)-N-[2-(6-Cyano-5-methoxypyridin-1-yl)-4-(trifluoromethyl)phenyl]-1-[(2,3-difluorophenyl)methyl]-4-hydroxy-4a-methyl-2-oxo-6,7-dihydro-5H-pyrrolo[1,2-b] pyridazine-3-carboxamide [Example 114]”: the “Rate of uptake inhibition (%) (1 µM)” value in test [2] is 86%.

Consider “(4aS)-1-[(2,3-Difluorophenyl)methyl]-6,6-difluoro-4-hydroxy-N-[5-methyl-2-(trifluoromethyl)furan-3-yl]-2-oxo-5,7-dihydro-4aH-pyrrolo[1,2-b]pyridazine-3-carboxamide [Example 5]”, for which the “Rate of uptake inhibition (%) (1 µM)” value in test [2] is recorded as 54%.

As for “(4aS)-1-[(3-Fluorophenyl)methyl]-4-hydroxy-4a-methyl-N-[5-methyl-2-(trifluoromethyl)furan-3-yl]-2-oxo-6,7-dihydro-5H-pyrrolo[1,2-b]pyridazine-3-carboxamide [Example 8]”, the “Rate of uptake inhibition (%) (1 µM)” value in test [2] came out at 37%.

With “(4aS)-1-[(3-Fluorophenyl)methyl]-4-hydroxy-N-[5-methyl-2-(trifluoromethyl)furan-3-yl]-2-oxo-5,6,7,8-tetrahydro-4aH-pyrido[1,2-b]pyridazine-3-carboxamide [Example 16]”, the “Rate of uptake inhibition (%) (1 µM)” value in test [2] is reported as 38%.

Turning to “(4aS)-1-[(5,6-Difluoro-1H-indol-7-yl)methyl]-4-hydroxy-N-[5-methyl-2-(trifluoromethyl)furan-3-yl]-2-oxo-5,6,7,8-tetrahydro-4aH-pyrido[1,2-b]pyridazine-3-carboxamide [Example 17]”, the “Rate of uptake inhibition (%) (1 µM)” value in test [2] turned out to be 33%.

As to “(4aS,5S,8R)-1-(3-Fluorobenzyl)-4-hydroxy-N-(5-methyl-2-(trifluoromethyl)furan-3-yl)-2-oxo-2,4a,5,6,7,8-hexahydro-1H-5,8-methanopyrido[1,2-b]pyridazine-3-carboxamide [Example 20]”, in test [2], the “Rate of uptake inhibition (%) (1 µM)” value was 21%.
